The target in assay [1] is T1, Human V1b receptor (Homo sapiens, UniProt P47901).
T1 sequence (P47901 1-424): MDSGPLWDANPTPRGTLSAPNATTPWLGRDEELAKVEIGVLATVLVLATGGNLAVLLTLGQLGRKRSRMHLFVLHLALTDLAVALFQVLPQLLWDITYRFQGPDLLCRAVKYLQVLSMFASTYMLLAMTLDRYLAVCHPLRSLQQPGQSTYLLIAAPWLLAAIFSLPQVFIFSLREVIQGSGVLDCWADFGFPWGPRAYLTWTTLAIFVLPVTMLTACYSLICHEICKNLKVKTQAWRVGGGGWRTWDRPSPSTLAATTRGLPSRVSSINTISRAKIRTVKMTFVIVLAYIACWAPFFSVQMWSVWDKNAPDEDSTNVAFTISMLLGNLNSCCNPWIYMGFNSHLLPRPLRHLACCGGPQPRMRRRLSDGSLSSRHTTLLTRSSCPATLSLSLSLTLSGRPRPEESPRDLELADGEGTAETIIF
As to the kind of experiment: Binding test for V1b receptor ([3H]AVP displacement, crude membrane preparation). Set-up: expressed in transfected cells; host or cells: 293FT cells (transient expression). To be noted: [3H]AVP 0.4 to 1 nmol/L; membranes of 293FT cells transiently expressing human V1b receptor; room temperature, 60 minutes. Here is the method:
Human V1b receptor was transiently expressed in 293FT cells, which were then recovered and homogenated in a 15 mmol/L tris-hydrochloric acid buffer (pH 7.4 and containing 2 mmol/L magnesium chloride, 0.3 mmol/L ethylenediaminetetracetic acid, and 1 mmol/L glycol ether diaminetetraacetic acid). The resulting homogenate was centrifuged at 50,000×g at 4 ° C. for 20 minutes. The precipitate was resuspended in a 75 mmol/L tris-hydrochloric acid buffer (pH 7.4 and containing 12.5 mmol/L magnesium chloride, 0.3 mmol/L ethylenediaminetetracetic acid, 1 mmol/L glycol ether diaminetetraacetic acid, and 250 mmol/L sucrose) to give a crude membrane preparation, which was stored at −80° C. until the binding test was initiated. In the binding test, the crude membrane preparation was diluted with a 50 mmol/L tris-hydrochloric acid buffer (pH 7.4 and containing 10 mmol/L magnesium chloride and 0.1% bovine serum albumin) and mixed with each test compound and [^3H]AVP (final concentration: 0.4 to 1 nmol/L), followed by incubation at room temperature for 60 minutes. The test compound was serially diluted with DMSO so that it would have final concentrations of 0.01 nmol/L to […] at the time of mixing. After the incubation, the mixture was suction filtered through a GF/C filter that was preliminarily impregnated with 0.3% polyethyleneimine. The GF/C filter was dried and after adding a scintillator, the residual radioactivity on the filter was measured using TopCount (PerkinElmer Inc.). The radioactivity in the presence of unlabeled AVP at 10 μmol/L was defined as 0%, and the radioactivity in the absence of unlabeled AVP was defined as 100%. A dose-response curve was plotted from radioactivities in the presence of a test compound at various concentrations, and the 50% inhibitory concentration (IC50 value) of the test compound was calculated.

For assay [2], the target named is T1, Human V1b receptor. As to the kind of experiment: Measurement of V1b receptor antagonistic activity (AVP-induced Fluo-4 fluorescence, FDSS). The format is cell-based. Set-up: expressed in transfected cells. The conditions noted are these: CHO cells stably expressing human V1b receptor; AVP 2.5 nmol/L; 30 minutes preincubation with test compound. Here is the method:
CHO cells so modified as to express human V1b receptor in a stable manner were cultured in Ham's F-12 medium (containing 10% FBS and 0.5 mg/mL Geneticin). On the day before the test, seeding was conducted at a density of 20,000 cells/well in a 96-well poly-D-lysine coated black plate. On the day of the test, the culture medium was removed, and a loading solution (1×HBSS, 10 mmol/L HEPES, 0.1% bovine serum albumin, 1.25 mmol/L Probenecid, 0.02% Pluronic F-127, 1.5 μmol/L Fluo-4-AM, pH 7.4) was added to each well, followed by incubation in a CO2 incubator for an hour. After the incubation, the loading solution was removed. A test solution (1×HBSS, 10 mmol/L HEPES, 0.1% bovine serum albumin, 1.25 mmol/L Probenecid, pH 7.4) containing any one of test compounds was added to wells, followed by incubation in a CO2 incubator for 30 minutes. The test compound was serially diluted with DMSO so that it would have final concentrations of 0.1 nmol/L to 1 μmol/L at the time of assaying. After the incubation, fluorescence intensity levels were measured and AVP added by means of FDSS (Hamamatsu Photonics K.K.); AVP was added to give a final concentration of 2.5 nmol/L at the time of assaying. […] The fluorescence level in a well to which neither test compound nor AVP was added was defined as 0%, and the fluorescence level in a well to which only AVP was added and no test compound was added was defined as 100%. A dose-response curve was plotted from fluorescence levels after the addition of AVP in the presence of a test compound at various concentrations, and the 50% inhibitory concentration (IC50 value) of the compound was calculated.

SMILES strings stand for the structures.

For orientation: IC50 means the concentration that inhibits the measured activity by half. A low value points to inhibition by little substance. As for `CC(C)NC(=O)Cn1c(-c2ccc(F)c(Cl)c2)cc2cc(OCCCN3CCCCC3)ccc21` [Example B-4, 2-{2-(3-chloro-4-fluorophenyl)-5-[3-(piperidin-1-yl)propoxy]-1H-indol-1-yl}-N-isopropyl acetamide], the figures for the 50% inhibitory concentration (IC50) at Human V1b receptor [1] and against Human V1b receptor [2] were 4.9 nM and 21.9 nM, respectively.
The matching figures for `CC(C)NC(=O)Cn1c(-c2ccc(F)c(Cl)c2)cc2cc(OCCCN3CCOCC3)ccc21` [Example B-5, 2-{2-(3-chloro-4-fluorophenyl)-5-[3-(morpholin-4-yl)propoxy]-1H-indol-1-yl}-N-isopropyl acetamide]: 8.9 nM and 8 nM.
As for `CC(C)NC(=O)Cn1c(-c2cccc(Cl)c2)cc2cc(OCCCN3CC4(COC4)C3)ccc21` [Example B-9, 2-{2-(3-chlorophenyl)-5-[3-(2-oxa-6-azaspiro[3.3]hept-6-yl)propoxy]-1H-indol-1-yl}-N-isopropyl acetamide], the 50% inhibitory concentration (IC50) amounted to 5.3 nM on Human V1b receptor [1] and 21.4 nM against Human V1b receptor [2].
The matching figures for `CC(C)NC(=O)Cn1c(-c2ccc(F)c(Cl)c2)cc2cc(OC3CCN(C4CCCC4)CC3)ccc21` [Example B-17, 2-{2-(3-chloro-4-fluorophenyl)-5-[(1-cyclopentylpiperidin-4-yl)oxy]-1H-indol-1-yl}-N-isopropyl acetamide]: 0.86 nM and 6 nM.
The matching figures for `CC(C)NC(=O)Cn1c(-c2cccc(Cl)c2)cc2cc(OCCCN3CCCCC3)cnc21` [Example B-21, 2-{2-(3-chlorophenyl)-5-[3-(piperidin-1-yl)propoxy]-1H-pyrrolo[2,3-b]pyridin-1-yl}-N-isopropyl acetamide]: 21.4 nM and 50.8 nM.

For the origin of these results see US20150045551A1, “FUSED AZOLE DERIVATIVE” (TAISHO PHARMACEUTICAL CO., LTD, priority 2012, published 2015).
